Data set [1] deals with MCF-7 (human breast cancer). Kind of data set: MTT assay, MCF-7 cells. In kind it is cell-based. Background: Tetrazolium dyes change colour on reduction, which living cells bring about.
Procedure: (§1) MTT assay: Cytotoxic profiles of the compounds were assessed in the following cell lines (passage number not exceeding 15): MCF-7 (human breast cancer) C-33 A (human cervical carcinoma) and HEK293T (transformed human kidney). Around 6000 cells were seeded in 96 well transparent flat-bottom tissue-culture plate in 200 μl of Dulbecco's Modified Eagle Medium (DMEM) containing 10% FBS (Fetal Bovine Serum) and were incubated for 24 h at 37° C. and 5% CO2. We performed an initial control experiment with vehicle alone (0.1% DMSO-DMEM) on cells with different dosages of near-IR light and compared it to unexposed counterparts. […] One such plate was exposed to near-IR light for 45 min in phenol-red free DMEM (200 μl) and room temperature was maintained using a cooling system. Another identical plate was kept in dark. The plates were incubated for another 24 h in dark. Finally, MTT [3-(4,5-dimethylthiazole-2-yl)-2,5-diphenyltetrazolium bromide] (25 μl of 5 mg/ml solution in PBS) was added and incubated for 3-4 h. The absorbance of the precipitated formazan was recorded at 550 nm in DMSO. Cells treated with 0.1% DMSO-DMEM was kept as controls which represented 100% viability. The half-growth inhibitory concentration (IC50) values were calculated by nonlinear regression analysis using GraphPad Prism5. The data is represented from two independent set of experiments, each of which was performed in triplicate.
For data set [2], the system named is C-33 A (human cervical carcinoma). Kind of data set: MTT assay, C-33 A cells. Format: cell-based.
Procedure: as §1
The subject of data set [3] is ctDNA. The data set is described as follows: DNA bound Pt content by ICP-MS. Format: biochemical. The following applies: extended incubation with ctDNA in the dark. On the procedure:
DNA bound Pt content: A 1×-PBS solution containing ctDNA (500 μM) and 1 (50 μM in 0.1% DMSO-PBS) was irradiated with near-IR light (720-740 nm) for 15, 30 and 60 mins. Another identical set was incubated in dark for comparison. After treatment, the DNA was precipitated from the solutions using 10 mL of cooled ethanol, vortexed, and collected by centrifugation. The precipitate was washed twice with cooled ethanol (5 mL) to remove soluble platinum complexes. The white fibrous precipitate was dissolved using 200 μl of conc. HNO3 for 12 h and diluted with distilled water to 2% HNO3-water solutions. Platinum content was measured by ICP-MS instrument. Untreated samples (DNA alone, complex alone) were kept for control. Platinum standards were made by dissolving K2PtCl4 in 98% aq. HNO3 and used for calibration. The data along with the deviation is reported based on experiments performed in duplicate.

In data set [4] the test system is human cancer cell lines. The data set is described as follows: MTT cytotoxicity in a panel of human cancer cell lines. Format: cell-based. The following applies: dark, similar conditions. On the procedure:
MTT assay: Cytotoxic profiles of the compounds were assessed in the following cell lines (passage number not exceeding 15): MCF-7 (human breast cancer) C-33 A (human cervical carcinoma) and HEK293T (transformed human kidney). Around 6000 cells were seeded in 96 well transparent flat-bottom tissue-culture plate in 200 μl of Dulbecco's Modified Eagle Medium (DMEM) containing 10% FBS (Fetal Bovine Serum) and were incubated for 24 h at 37° C. and 5% CO2. We performed an initial control experiment with vehicle alone (0.1% DMSO-DMEM) on cells with different dosages of near-IR light and compared it to unexposed counterparts. The cells were unharmed by light and vehicle alone up to 45 min of photoirradiation. Cells were treated with various concentrations of 1, 2, IR797-acac, cisplatin and an equimolar mixture of IR797-acac and cisplatin in 0.1% DMSO-DMEM for 4 h or 48 h in the dark. One such plate was exposed to near-IR light for 45 min in phenol-red free DMEM (200 μl) and room temperature was maintained using a cooling system. Another identical plate was kept in dark. The plates were incubated for another 24 h in dark. Finally, MTT [3-(4,5-dimethylthiazole-2-yl)-2,5-diphenyltetrazolium bromide] […] The absorbance of the precipitated formazan was recorded at 550 nm in DMSO. […] The half-growth inhibitory concentration (IC50) values were calculated by nonlinear regression analysis using GraphPad Prism5. […]

A short description of data set [5]: Photodecomposition and dark stability (absorbance, LC-MS). Format: physicochemical. The conditions noted are these: buffer, pH 7.4. The method, then: High performance liquid chromatography: For verifying purity, samples (25 μl in 2.5% DMSO-H2O) were loaded on an analytical C18 column and gradient was maintained at 10-100 percent of MeCN—H2O from 10-50 min. The absorbance was measured at different wavelengths within the range of 200-800 nm. For photolysis experiments, solution of 1 (30 μl of 100 nM in 0.01% of DMSO-PBS, irradiated for 1 min) was injected on the column and eluted using the same gradient as above.
Liquid-chromatography mass spectral experiments: Solutions of 1 and IR797-acac (100 nM in 0.01% DMSO-PBS) were used to carry out LC-MS studies. Samples were injected on a self-packed fused silica (polymicro technologies) trap column (360 micron o.d.×100 micron i.d.) with a Kasil frit packed with 5-15 micron irregular phenyl C-18 YMC packing. The trap column is connected to an analytical column (360 micron×50 micron) with a fritted tip at 5 micron or less (New Objective) packed with 5 μm phenyl C-18 YMC packing. Compounds were initially trapped and then eluted into a Thermo Finnigan LCQ deca XP max mass spectrometer (Thermo Scientific) with an acetonitrile gradient from 0% to 80% over 5 minutes at a flow rate of between 50-150 nl/min. […]

Data set [6] relates to ctDNA. Kind of data set: DNA melting experiments and Hoechst displacement assays. In kind it is binding. The conditions noted are these: in the dark. The method, then:
DNA thermal denaturation experiments: The DNA thermal denaturation experiments were performed by monitoring the absorption intensity of ct-DNA (200 μM) at 260 nm at increasing temperatures (from 40 to 90° C.), both in the absence and presence of complex 1 and IR797-acac (20 μM in 1% DMSO-DPBS solutions, pH=7.2). The experiments were performed using Agilent UV-visible spectrophotometer connected to a Peltier thermostat for temperature control. Data was recorded with increasing the temperature of the solution by 1.0° C. per min. The derivative of the melting plots gave the DNA melting temperature (Tm) of the ct-DNA. Ethidium bromide (20 μM) as a standard intercalator was used for comparison.

A short description of data set [7]: Solubility in solvents. Format: physicochemical. On the procedure: Synthesis of IR797-acac: IR797 chloride (250 mg, 0.49 mmol), acetylacetone (245 μl, 2.45 mmol) and N,N-diisopropylethylamine (90 μl, 0.49 mmol) were dissolved in acetonitrile (10 mL) in a sealed vial. The dark green colored solution was heated at 70° C. on a microwave apparatus (Discover, CEM, 60 W) for 15 mins. The progress of the reaction was monitored via TLC and stopped only after full consumption of the starting dye. The reaction mixture was allowed to cool down to room temperature and dichloromethane (50 mL) was added. The organic layer was washed using saturated sodium bicarbonate solution (2×10 ml), dried over anhydrous sodium sulfate, filtered, and evaporated using a rotavac. The crude material was subjected to column chromatography using ethyl acetate (100%) and dichloromethane-methanol eluents (0-10%) to yield pure product, IR797-acac (150 mg, 50% yield). ^1H NMR (400 MHz, CDCl3): δ (ppm)=7.43-7.36 (m, 4H), 7.31 (d, J=7.4 Hz, 2H), 7.21 (t, J1=J2=7.2 Hz, 2H), 7.11 (d, J=8.0 Hz, 2H), 6.20 (d, J=14 Hz, 2H), 3.74 (s, 6H), 3.15 (s, 4H), 2.00 (s, 6H), 1.58 (s, 12H). ^13C NMR (100 MHz, CDCl3): δ (ppm)=191.42, 170.78, 144.66, 142.96, 140.71, 137.40, 128.80, 124.99, 122.04, 110.04, 103.39, 48.82, 32.53, 28.42, 23.60. ESI-MS in MeCN: m/z (expected)=533.33, m/z (observed)=533.32 [M-Cl]^+ (100%). […]

Data on 3 molecules can be found in patent publication US11661433B2, “Near-IR activatable fluorescent small molecules with dual modes of cytotoxicity” (VIRGINIA COMMONWEALTH UNIVERSITY, priority 2018, dated 2023).

Where two headings read alike, the source gives them in different places.

Broadly, the IC50 is the concentration that gives 50% inhibition. On to `N.N.[Cl][Pt][Cl]` [CP, cisplatin, reference compound], for which the IC50 was 22.5 ± 3.2 µM in data set [1] (cisplatin incubated 48 h in the dark, light 45 mins, 720-740 nm, read-out: IC50 MCF-7 Light); 25 ± 2.2 µM in data set [1] (cisplatin incubated 48 h in the dark, read-out: IC50 MCF-7 Dark); 16.1 ± 1.5 µM in data set [2] (cisplatin incubated 48 h in the dark, light 45 mins, 720-740 nm, read-out: IC50 C-33 A Light); 17.7 ± 1.5 µM in data set [2] (cisplatin incubated 48 h in the dark, read-out: IC50 C-33 A Dark).

Turning to `CC1=CC(C)=[O+][Pt-2]([NH3+])([NH3+])[O]1.O=[N+]([O-])[O-]` (centres unmarked) [Complex 2, [Pt(NH3)2(acac)](NO3)], reference compound], the “incorporation of Pt into DNA in the dark” value in data set [3] is “slow incorporation”.

Regarding `CC(=O)C(=C(C)O)C1=C(C=CC2=[N+](C)c3ccccc3C2(C)C)CCC1=CC=C1N(C)c2ccccc2C1(C)C.[Cl-]` [IR797-acac], in data set [4], the “toxicity in unexposed cells” value is given as “toxic on its own”. For the same molecule, the IC50 is 4.7 ± 0.8 µM in data set [1] (4 h in dark, then light 45 mins, 720-740 nm, 3.5 ± 1.5 mW·cm^−2, read-out: IC50 MCF-7 Light); 5.9 ± 0.3 µM in data set [1] (4 h in the dark, read-out: IC50 MCF-7 Dark); 0.3 ± 0.07 µM in data set [2] (4 h in dark, then light 45 mins, 720-740 nm, 3.5 ± 1.5 mW·cm^−2, read-out: IC50 C-33 A Light); 1.2 ± 0.1 µM in data set [2] (4 h in the dark, read-out: IC50 C-33 A Dark). In data set [5], the “half-life of photodecomposition t1/2^L” value was around 40 s. Besides, the “stability in dark t1/2^D” value in data set [5] is around 10 h. Further, in data set [6], the DNA interaction mode result is “interact with the minor groove of ctDNA”. Besides, the solubility result in data set [7] is reported as “readily soluble in polar solvents”.
